In US20070293484A1, “Thiophene Heteroaryl Amines” (SUGEN, INC., priority 2004, published 2007):

How the values were obtained:
GST-Flk1 = target: T1, GST-Flk1 (Mus musculus, UniProt P35918); assay: GST-FLK-1 bioassay (ELISA, tyrosine kinase activity on poly(glu,tyr)); type: biochemical
T1 construct: GST-Flk1cd purified from sf9 recombinant baculovirus transformation (SUGEN, Inc.); host or cells: Sf9 insect cells (recombinant baculovirus)
Description: The assays described herein are performed in an ELISA (Enzyme-Linked Immunosorbent Sandwich Assay) format (Voller, et al., 1980, “Enzyme-Linked Immunosorbent Assay,” Manual of Clinical Immunology, 2d ed., Rose and Friedman, Am. Soc. Of Microbiology, Washington, D.C., pp. 359-371). The general procedure is as follows: a compound is introduced to cells expressing the test kinase, either naturally or recombinantly, for a selected period of time after which, if the test kinase is a receptor, a ligand known to activate the receptor is added. The cells are lysed and the lysate is transferred to the wells of an ELISA plate previously coated with a specific antibody recognizing the substrate of the enzymatic phosphorylation reaction. Non-substrate components of the cell lysate are washed away and the amount of phosphorylation on the substrate is detected with an antibody specifically recognizing phosphotyrosine compared with control cells that were not contacted with a test compound.
This assay analyzes the tyrosine kinase activity of GST-Flk1 on poly(glu,tyr) peptides.
• 1. Corning 96-well ELISA plates (Corning Catalog No. 5805-96). • 2. poly(glu,tyr) 4:1, lyophilizate (Sigma Catalog #P0275). • 3. Preparation of poly(glu,tyr)(pEY) coated assay plates: Coat 2 ug/well of poly(glu,tyr)(pEY) in 100 μL PBS, hold at room temperature for 2 hours or at 4° C. overnight. Cover plates well to prevent evaporation. • 4. PBS Buffer: for 1 L, mix 0.2 g KH2PO4, 1.15 g Na2HPO4, 0.2 g KCl and 8 g NaCl in approx. 900 ml dH2O. When all reagents have dissolved, adjust the pH to 7.2 with HCl. Bring total volume to 1 L with dH2O. • 5. PBST Buffer: to 1 L of PBS Buffer, add 1.0 ml Tween-20. • 6. TBB—Blocking Buffer: for 1 L, mix 1.21 g TRIS, 8.77 g NaCl, 1 ml TWEEN-20 in approximately 900 ml dH2O. Adjust pH to 7.2 with HCl. Add 10 g BSA, stir to dissolve. Bring total volume to 1 L with dH2O. Filter to remove particulate matter. • 7. 1% BSA in PBS: To make a 1× working solution, add 10 g BSA to approx. 990 ml PBS buffer, stir to dissolve. Adjust total volume to 1 L with PBS buffer, filter to remove particulate matter. • 8. 50 mM Hepes pH 7.5. • 9. GST-Flk1cd purified from sf9 recombinant baculovirus transformation (SUGEN, Inc.). • 10. 4% DMSO in dH2O. • 11. 10 mMATP in dH2O. • 12. 40 mM MnCl2 • 13. Kinase Dilution Buffer (KDB): mix 10 ml Hepes (pH 7.5), 1 ml 5M NaCl, 40 μL 100 mM sodium orthovanadate and 0.4 ml of 5% BSA in dH2O with 88.56 ml dH2O. • 14. NUNC 96-well V bottom polypropylene plates, Applied Scientific Catalog #AS-72092 • 15. EDTA: mix 14.12 g ethylenediaminetetraacetic acid (EDTA) to approx. 70 ml dH2O. Add 10 N NaOH until EDTA dissolves. Adjust pH to 8.0. Adjust total volume to 100 ml with dH2O. • 16. 1^0 Antibody Dilution Buffer: mix 10 ml of 5% BSA in PBS buffer with 89.5 ml TBST. • 17. Anti-phosphotyrosine monoclonal antibody conjugated to horseradish peroxidase (PY99 HRP, Santa Cruz Biotech). • 18. 2,2′-Azinobis(3-ethylbenzthiazoline-6-sulfonic acid (ABTS, Moss, Cat. No. ABST). • 19. 10% SDS. Procedure: • 1. Coat Corning 96-well ELISA plates with 2 μg of polyEY peptide in sterile PBS as described in step 3 of Materials and Reagents. • 2. Remove unbound liquid from wells by inverting plate. Wash once with TBST. Pat the plate on a paper towel to remove excess liquid. • 3. Add 100 μl of 1% BSA in PBS to each well. Incubate, with shaking, for 1 hr. at room temperature. • 4. Repeat step 2. • 5. Soak wells with 50 mM HEPES (pH7.5) (150 μl/well). • 6. Dilute test compound with dH2O/4% DMSO to 4 times the desired final assay concentration in 96-well polypropylene plates. • 7. Add 25 μl diluted test compound to ELISA plate. In control wells, place 25 μl of dH2O/4% DMSO. • 8. Add 25 μl of 40 mM MnCl2 with 4×ATP (2 μM) to each well. • 9. Add 25 μl 0.5M EDTA to negative control wells. • 10. Dilute GST-Flk1 to 0.005 μg (5 ng)/well with KDB. • 11. Add 50 μl of diluted enzyme to each well. • 12. Incubate, with shaking, for 15 minutes at room temperature. • 13. […]

PDGFR = target: T2, PDGFR (Homo sapiens, UniProt P09619); assay: PDGFR bioassay (ELISA, in vitro kinase activity); type: biochemical; details: PDGFR-β expressing NIH 3T3 cell lysate; read-out: IC50 (μM) PDGF-R
T2 construct: SUGEN, Inc; host or cells: NIH 3T3 cell lysate; receptor captured on plate with monoclonal anti-PDGFR antibody 28D4C10
T2 sequence (P09619 33-1106, species assumed): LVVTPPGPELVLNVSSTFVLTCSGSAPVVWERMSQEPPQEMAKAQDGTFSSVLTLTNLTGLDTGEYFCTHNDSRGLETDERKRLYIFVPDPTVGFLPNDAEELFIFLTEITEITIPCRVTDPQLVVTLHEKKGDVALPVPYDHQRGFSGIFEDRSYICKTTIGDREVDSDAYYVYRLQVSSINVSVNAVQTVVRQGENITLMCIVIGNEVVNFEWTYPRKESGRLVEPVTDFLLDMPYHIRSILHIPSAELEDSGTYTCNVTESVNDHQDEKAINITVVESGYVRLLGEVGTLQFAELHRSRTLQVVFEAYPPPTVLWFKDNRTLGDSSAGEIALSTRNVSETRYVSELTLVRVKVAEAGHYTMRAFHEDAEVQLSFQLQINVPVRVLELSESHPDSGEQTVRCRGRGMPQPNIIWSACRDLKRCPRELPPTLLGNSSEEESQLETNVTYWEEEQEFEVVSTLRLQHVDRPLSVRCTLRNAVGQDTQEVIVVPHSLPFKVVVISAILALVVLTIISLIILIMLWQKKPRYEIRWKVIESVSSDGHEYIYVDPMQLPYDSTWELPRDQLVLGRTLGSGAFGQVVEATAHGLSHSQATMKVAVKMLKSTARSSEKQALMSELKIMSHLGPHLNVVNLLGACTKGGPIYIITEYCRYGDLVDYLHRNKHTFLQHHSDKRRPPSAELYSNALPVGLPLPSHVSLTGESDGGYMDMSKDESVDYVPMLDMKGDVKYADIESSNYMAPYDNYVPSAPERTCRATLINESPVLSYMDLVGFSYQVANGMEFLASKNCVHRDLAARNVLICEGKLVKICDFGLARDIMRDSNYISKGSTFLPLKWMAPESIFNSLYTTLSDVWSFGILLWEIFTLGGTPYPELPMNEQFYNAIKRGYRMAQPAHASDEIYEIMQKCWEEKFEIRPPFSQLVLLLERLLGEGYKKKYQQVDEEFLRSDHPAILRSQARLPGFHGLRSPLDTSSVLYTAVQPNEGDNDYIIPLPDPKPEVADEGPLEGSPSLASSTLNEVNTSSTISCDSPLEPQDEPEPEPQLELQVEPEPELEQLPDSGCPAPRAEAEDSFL

T1 sequence (P35918 784-1345 limits assumed): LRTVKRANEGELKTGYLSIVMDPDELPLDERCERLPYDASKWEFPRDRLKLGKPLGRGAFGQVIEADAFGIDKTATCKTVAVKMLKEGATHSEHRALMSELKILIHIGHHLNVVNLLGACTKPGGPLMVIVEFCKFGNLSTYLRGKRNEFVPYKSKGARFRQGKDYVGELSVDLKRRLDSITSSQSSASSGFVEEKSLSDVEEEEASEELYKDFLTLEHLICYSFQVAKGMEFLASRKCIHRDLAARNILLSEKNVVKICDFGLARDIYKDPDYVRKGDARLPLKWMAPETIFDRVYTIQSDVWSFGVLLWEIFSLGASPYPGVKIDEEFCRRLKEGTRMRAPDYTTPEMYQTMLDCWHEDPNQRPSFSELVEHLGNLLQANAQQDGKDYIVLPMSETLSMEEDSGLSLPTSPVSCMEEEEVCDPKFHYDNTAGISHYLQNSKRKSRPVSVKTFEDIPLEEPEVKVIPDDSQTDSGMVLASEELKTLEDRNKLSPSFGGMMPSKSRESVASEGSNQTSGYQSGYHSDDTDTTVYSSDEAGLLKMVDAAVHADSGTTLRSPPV

IC50 (GST-Flk1) [µM]	IC50 (PDGFR) [µM]	Compound
2.7	0.09	O=C(CNCC(O)CN1CCOCC1)Nc1cccc(Nc2ncc(-c3ccsc3)cn2)c1 (stereo not drawn) [Example 59, 2-(2-hydroxy-3-morpholin-4-yl-propylamino)-N-[3-(5-thiophen-3-yl-pyrimidin-2-ylamino)-phenyl]-acetamide]
> 20	0.15	c1cc(-c2cnc(Nc3ccc(N4CCOCC4)cc3)nc2)cs1 [Example 3, N-(4-morpholin-4-ylphenyl)-5-thien-3-ylpyrimidin-2-amine]
> 20	> 20	O=C(CN1CCOCC1)Nc1cccc(Nc2cnc(-c3ccsc3)cn2)c1 [Example 42, 2-morpholin-4-yl-N-{3-[(5-thien-3-ylpyrazin-2-yl)amino]phenyl}acetamide]
